The source of these data is publication PMC9863716, “The Sequence Characteristics and Binding Properties of the Odorant-Binding Protein 2 of Euplatypus parallelus to Semiochemicals” (International Journal of Molecular Sciences, 2023).

SMILES strings stand for the structures.

In assay [1] the target is EparOBP2. The assay is described as follows: Titration of EparOBP2 with fluorescent probe 1-NPN (saturation and Scatchard plot). In kind it is binding, Euplatypus parallelus. Conditions: 2 μM protein titrated with 2 to 20 μM 1-NPN, pH 7.4; read-out: K1-NPN (dissociation constant of 1-NPN). How it is done:
(§1) Nine semiochemicals related to the life activities of E. parallelus were used as candidate ligands. The binding capacities of EpraOBP2 were evaluated using an F-7000 fluorescence spectrometer (Hitachi, Tokyo, Japan). The fluorescent reporter N-phenyl-1-naphthylamine (1-NPN) was dissolved in chromatographic methanol at a concentration of 1 mM. The purified EparOBP2 was dissolved in 50 mM Tris-HCl (pH 7.4) at a final concentration of 2 μM. The fluorescence spectra were scanned between 360 and 650 nm. […] Prism 8 (GraphPad Software, San Diego, CA, USA) was used to calculate the dissociation constant of 1-NPN (K1-NPN).

Assay [2] deals with EparOBP2. Put plainly: Fluorescence competitive binding assay (displacement of 1-NPN). The arrangement: species or system Euplatypus parallelus. Conditions: 2 μM protein, 50 mM Tris-HCl pH 7.4; for Ki: Ki = IC50/(1 + [1-NPN]/K1-NPN); for IC50: ligand concentration displacing 50% of 1-NPN. The method, then:
as §1
To calculate the binding ability of EparOBP2 with semiochemicals, different odor compounds were used to replace the 1-NPN from the EparOBP2/1-NPN complex. The odor ligands were dissolved in chromatographic methanol at a concentration of 1 mM and added as aliquots to the protein solution. The spectral results were obtained, and the dissociation constants of the competitors were calculated with the formula Ki = IC50/(1 + [1-NPN]/K1-NPN), where 1-NPN represents the free concentration of 1-NPN, while IC50 represents the ligand concentration displacing 50% of the fluorescent reporter.

In assay [3] the test system is rubber bark beetles. Also on record: method as in ref 16, 17 = [16]; 16. Shore T. McLean J. Attraction of Platypus wilsoni Swaine (Coleoptera: Platipodidae) to traps baited with sulcatol, ethanol and alpha-pinene Can. For. Serv. Res. Notes 1983 3 24 25 || [17]; 17. Chen Q. Liang X. Wu C. Chen Q. Zhang Z. Trapping effects of 12 aggregation pheromones on rubber bark beetles Chin. J. Trop. Crops 2019 40 2432 2439. Particulars: trapping experiments; cited from earlier work.

The subject of assay [4] is E. parallelus. Also on record: method as in ref 7, 15 = [7]; 7. Zhou X. Guo J. Yin T. Gan W. Bai C. Xu F. Yang S. Research progress on rubber bark beetles and trapping control technology in China Chin. J. Trop. Crops 2021 42 3049 3054 || [15]; 15. Xu F. Research of Volatile Compounds of Rubber Tree and Its Behavioral Activities on Two Species of Bark Beetles Hainan University Haikou, China 2019 20 24. Conditions: cited from earlier work.

Turning to `c1ccc(Nc2cccc3ccccc23)cc1` [1-NPN, N-phenyl-1-naphthylamine], the Kd in assay [1] is 4.98 µM.
The term Ki denotes a dissociation constant, usually derived from enzyme kinetics or from competition with a known ligand. As a reminder, the IC50 is the point on the concentration scale where inhibition reaches its midpoint. A higher IC50 goes with weaker potency in that assay. For `C=CC(C)(C)O` [2-Methyl-3-buten-2-ol], in assay [2], the Ki turned out to be 31.6 µM and the IC50 was determined as 37.9 µM. In addition, the “attraction effects on rubber bark beetles” value in assay [3] is listed as “attraction effects”.
As to `CC(C)(O)c1ccccc1` [2-Phenyl-2-propanol], in assay [2], the Ki came out at 23.3 µM and the IC50 came out at 27.9 µM. In addition, the “attraction effect on E. parallelus” value in assay [4] was “attraction effect”.
For `C=C1[C@H]2CC[C@@H]3[C@H]2C(C)(C)CCC[C@]13C` [(+)-Longifolene], in assay [2], the Ki was determined as 41.3 µM and the IC50 came out at 49.6 µM. Moreover, in assay [4], the “attraction effect on E. parallelus” value was “attraction effect”.
Regarding `C=C(C)[C@@H]1CC=C(C)CC1` [(S)-(-)-Limonene], in assay [2], the Ki worked out at 33.7 µM and the IC50 stood at 40.4 µM. Further, in assay [3], the “attraction effects on rubber bark beetles” value was “attraction effects”.
Consider `C=C1C2CCC(C2)C1(C)C` (stereo not shown) [Camphene], for which, in assay [2], the Ki was 27.4 µM and the IC50 stood at 32.9 µM. Moreover, the “attraction effects on rubber bark beetles” value in assay [3] is “attraction effects”.
On to `C=CC(=C)CCC=C(C)C` [Myrcene], for which, in assay [2], the Ki was 7.49 µM and the IC50 amounted to 8.99 µM. In addition, in assay [3], the “attraction effects on rubber bark beetles” value is listed as “attraction effects”.
As for `CC1=C[C@H](O)[C@H]2C[C@@H]1C2(C)C` [S-(-)-cis-Verbenol], in assay [2], the Ki was 19.3 µM and the IC50 was 23.2 µM. The “attraction effects on rubber bark beetles” value in assay [3] is given as “attraction effects”.
For the compound `CCCCCCCCCCCCCC` [Tetradecane], in assay [2], the Ki turned out to be 26 µM and the IC50 was 31.2 µM. In addition, the “attraction effect on E. parallelus” value in assay [4] is given as “attraction effect”.
Consider `CC1=CCC2CC1C2(C)C` (stereo not drawn) [α-Pinene], for which, in assay [2], the Ki came to 15.9 µM and the IC50 came out at 19.1 µM. Moreover, the “attraction effects on rubber bark beetles” value in assay [3] is listed as “attraction effects”.
